Legend:
HepG2 cells [1] = assay: MTT cell viability / IC50 in growth media; type: cell-based, human; settings: for IC50: Homo sapiens, 48 h, HepG2, treatment for 2 days, 30 μM to 30 nM
HepG2 cells [2] = assay: FACs analysis with PI staining (cell cycle); type: cell-based, human; settings: for Cell population G0/G1 / Cell population G2/M / Cell population S: PI FACs, 10 μM, 2 days
Procedure: 400,000 HepG2 cells were seeded in a 6-well plated and treated with 10 μM of the compounds for 2 days. Cells were fixed with 70% ethanol and stained with 50 μg/ml PI. Prepared cells were analysed using BD FACS Canto II Flow Cytometry system at PE-A channel 10,000 cells per group. The data was histogram plotted with BD FACSDiva 9.0.

HepG2 cells [3] = assay: Mitochondrial membrane potential assay (TMRE); type: cell-based, human; settings: 10 μM, one day
Outline: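 HepG2 cells treated with compounds at the chosen concentration and time, then assayed with kits for TMRE, autophagy, DCFDA ROS or lipid peroxidation. Fluorescence intensity measured from ROI in images or by microplate reader in triplicate (GFP Ex480/Em530 nm, RFP Ex549/Em574 nm).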

[4] = In vivo toxicological study in rats: plasma chemistry; set-up: species or system rats of the Wistar strain; settings: plasma
Procedure: Forty-two male and forty-two female rats of the Wistar strain were allocated to the study. Three groups of three males and three females were given doses of 30, 100 and 300 mg/kg of target compounds (Table 8). The vehicle was 1.5 w/w % HPMC, 1.5 w/w % PS80 in 10 mM PBS, pH 7 and dose volume were 5 mL/kg. The animals were acclimatised at least 14 day prior to the study and exposed to a 12 hours light, 12 hours dark light cycle. The formulations were administered via oral gavage. Administration occurred once daily in the morning for seven consecutive days. Blood for scheduled haematology and plasma chemistry were taken at necropsy. For plasma chemistry, 0.6 ml blood (lithium heparin) per animal and for haematology, 0.5 ml blood (K2EDTA) per animal. The blood and plasma were analysed using Exigo analyzer and Vetscan equipment. Blood samples were kept in room temperature […] after collection and mixing. The blood samples were analysed as whole blood within 60 min of collection. The VetScan analyser was calibrated with calibration samples of known plasma levels of each parameter before start of analysis, occasionally during the analysis period of study samples and after completed analyses (Table 10).

[5] = Sex/Group F/8, 30-300 mg/kg of SET159
[6] = Sex/Group F/9, 30-300 mg/kg of SET159
[7] = Sex/Group F/10, 30-300 mg/kg of SET159
[8] = Sex/Group M/8, 30-300 mg/kg of SET159
[9] = Sex/Group M/9, 30-300 mg/kg of SET159
[10] = Sex/Group M/10, 30-300 mg/kg of SET159
[11] = Sex/Group F/11, 30-300 mg/kg of SET171
[12] = Sex/Group F/12, 30-300 mg/kg of SET171
[13] = Sex/Group F/13, 30-300 mg/kg of SET171
[14] = Sex/Group M/11, 30-300 mg/kg of SET171
[15] = Sex/Group M/12, 30-300 mg/kg of SET171
[16] = Sex/Group M/13, 30-300 mg/kg of SET171

## N#Cc1c(NC(=O)c2cccc3ccccc23)sc2c1CCN(C(=O)Nc1ccccc1OC(F)(F)F)C2 [PKL-A159]
HepG2 cells [1]
  IC50: 9.72 µM
HepG2 cells [2]
  Cell population G0/G1: 30.5
  Cell population G2/M: 62.4
  Cell population S: 3.3
HepG2 cells [3]
  mitochondrial membrane potential: significantly decreased
[4]; [5]
  ALB: 56 g/L
  ALP: 179 U/L
  ALT: 22 U/L
  AMY: 541 U/L
  BUN: 6.2 mmol/L
  CA: 2.76 mmol/L
  CRE: 39 µmol/L
  GLOB: 9 g/L
  GLU: 7.8 mmol/L
  K+: 4.9 mmol/L
  NA+: 139 mmol/L
  PHOS: 2.59 mmol/L
  TBIL: 4.0 µmol/L
  TP: 65 g/L
[4]; [6]
  ALB: 57 g/L
  ALP: 135 U/L
  ALT: 21 U/L
  AMY: 542 U/L
  BUN: 5.1 mmol/L
  CA: 2.88 mmol/L
  CRE: 46 µmol/L
  GLOB: 8 g/L
  GLU: 7.0 mmol/L
  K+: 4.4 mmol/L
  NA+: 139 mmol/L
  PHOS: 2.65 mmol/L
  TBIL: 4.3 µmol/L
  TP: 65 g/L
[4]; [7]
  ALB: 53 g/L
  ALP: 175 U/L
  ALT: 23 U/L
  AMY: 481 U/L
  BUN: 4.8 mmol/L
  CA: 2.89 mmol/L
  CRE: 40 µmol/L
  GLOB: 9 g/L
  GLU: 7.8 mmol/L
  K+: 4.7 mmol/L
  NA+: 139 mmol/L
  PHOS: 2.80 mmol/L
  TBIL: 4.0 µmol/L
  TP: 62 g/L
[4]; [8]
  ALB: 49 g/L
  ALP: 274 U/L
  ALT: 25 U/L
  AMY: 719 U/L
  BUN: 5.9 mmol/L
  CA: 2.94 mmol/L
  CRE: 29 µmol/L
  GLOB: 11 g/L
  GLU: 8.0 mmol/L
  K+: 5.0 mmol/L
  NA+: 141 mmol/L
  PHOS: 2.44 mmol/L
  TBIL: 4.0 µmol/L
  TP: 60 g/L
[4]; [9]
  ALB: 47 g/L
  ALP: 324 U/L
  ALT: 30 U/L
  AMY: 823 U/L
  BUN: 6.8 mmol/L
  CA: 2.99 mmol/L
  CRE: 36 µmol/L
  GLOB: 16 g/L
  GLU: 8.8 mmol/L
  K+: 5.0 mmol/L
  NA+: 141 mmol/L
  PHOS: 2.43 mmol/L
  TBIL: 4.3 µmol/L
  TP: 63 g/L
[4]; [10]
  ALB: 50 g/L
  ALP: 284 U/L
  ALT: 24 U/L
  AMY: 806 U/L
  BUN: 6.1 mmol/L
  CA: 3.02 mmol/L
  CRE: 47 µmol/L
  GLOB: 13 g/L
  GLU: 7.9 mmol/L
  K+: 4.8 mmol/L
  NA+: 142 mmol/L
  PHOS: 2.42 mmol/L
  TBIL: 4.3 µmol/L
  TP: 62 g/L

## N#Cc1c(NC(=O)c2cccc3ccccc23)sc2c1CCN(CC(=O)Nc1cccc(Br)c1)C2 [PKL-B171]
HepG2 cells [1]
  IC50: 21.8 µM
HepG2 cells [1]; especially in cancerous media
  cell viability of HepG2 cells: particularly low cell viability
HepG2 cells [2]
  Cell population G0/G1: 6.6
  Cell population G2/M: 79.1
  Cell population S: 3.6
HepG2 cells [2]; histogram plots
  cells in the G2/M phase: around 89%
HepG2 cells [3]
  mitochondrial membrane potential: significantly decreased
[4]; [11]
  ALB: 61 g/L
  ALP: 114 U/L
  ALT: 21 U/L
  AMY: 527 U/L
  BUN: 6.0 mmol/L
  CA: 2.90 mmol/L
  CRE: 45 µmol/L
  GLOB: 8 g/L
  GLU: 7.8 mmol/L
  K+: 4.4 mmol/L
  NA+: 138 mmol/L
  PHOS: 2.33 mmol/L
  TBIL: 5.3 µmol/L
  TP: 70 g/L
[4]; [12]
  ALB: 57 g/L
  ALP: 126 U/L
  ALT: 21 U/L
  AMY: 570 U/L
  BUN: 6.5 mmol/L
  CA: 2.92 mmol/L
  CRE: 38 µmol/L
  GLOB: 9 g/L
  GLU: 7.7 mmol/L
  K+: 4.5 mmol/L
  NA+: 137 mmol/L
  PHOS: 2.42 mmol/L
  TBIL: 5.0 µmol/L
  TP: 66 g/L
[4]; [13]
  ALB: 56 g/L
  ALP: 145 U/L
  ALT: 21 U/L
  AMY: 550 U/L
  BUN: 6.3 mmol/L
  CA: 2.89 mmol/L
  CRE: 39 µmol/L
  GLOB: 11 g/L
  GLU: 7.9 mmol/L
  K+: 4.5 mmol/L
  NA+: 139 mmol/L
  PHOS: 2.64 mmol/L
  TBIL: 4.0 µmol/L
  TP: 67 g/L
[4]; [14]
  ALB: 51 g/L
  ALP: 260 U/L
  ALT: 26 U/L
  AMY: 810 U/L
  BUN: 5.3 mmol/L
  CA: 2.97 mmol/L
  CRE: 47 µmol/L
  GLOB: 12 g/L
  GLU: 7.8 mmol/L
  K+: 4.3 mmol/L
  NA+: 140 mmol/L
  PHOS: 2.83 mmol/L
  TBIL: 4.3 µmol/L
  TP: 62 g/L
[4]; [15]
  ALB: 52 g/L
  ALP: 248 U/L
  ALT: 35 U/L
  AMY: 846 U/L
  BUN: 6.2 mmol/L
  CA: 3.04 mmol/L
  CRE: 35 µmol/L
  GLOB: 12 g/L
  GLU: 7.7 mmol/L
  K+: 4.6 mmol/L
  NA+: 140 mmol/L
  PHOS: 3.04 mmol/L
  TBIL: 4.3 µmol/L
  TP: 64 g/L
[4]; [16]
  ALB: 50 g/L
  ALP: 263 U/L
  ALT: 25 U/L
  AMY: 808 U/L
  BUN: 6.4 mmol/L
  CA: 2.96 mmol/L
  CRE: 29 µmol/L
  GLOB: 13 g/L
  GLU: 8.4 mmol/L
  K+: 4.4 mmol/L
  NA+: 141 mmol/L
  PHOS: 2.94 mmol/L
  TBIL: 5.0 µmol/L
  TP: 63 g/L

— patent publication US20260234159A1, “SMALL MOLECULE TREATMENT OF FATTY LIVER DISEASE AND HCC” (SCANDIEDGE THERAPEUTICS AB, priority 2023, published 2026)
